Consider three compounds from patent US9284580B2 (priority 2010, dated 2016).

One experiment relates to AckKO(pMAD22). In words: Batch fermentation in serum bottles with a hydrogenase inhibitor. To be noted: hydrogenase inhibitor added to fermentation. In kind it is cell-based, Clostridium tyrobutyricum.
Another experiment has as its system C. tyrobutyricum mutants. An excerpt: Cell growth was monitored by measuring the optical density at 600 nm (OD600) of the culture broth.

Like-named read-outs stand apart in the source and are kept apart here.

Consider `Cc1cc2nc3ccc(N(C)C)cc3nc2cc1N.Cl` [neutral red], for which the “effect on acids and butanol production from glucose” value with AckKO(pMAD22) is “significantly decreased acids production and enhanced butanol production from glucose”.
Same read-out and setting: in the case of `C[n+]1ccc(-c2cc[n+](C)cc2)cc1` [methyl viologen] it was “significantly decreased acids production and enhanced butanol production from glucose”.
Regarding butanol, in the experiment with C. tyrobutyricum mutants (0.5% (v/v) butanol in RCM medium, strains studied), the “effect on cell growth” value was “does not have any apparent effect on cell growth”. For the same compound, the cell growth entry with C. tyrobutyricum mutants (2.0% (v/v) butanol, all strains started to grow after 2 days) is recorded as “no significant cell growth was observed for the first 24 hours”. In addition, the tolerated butanol concentration result in the experiment on C. tyrobutyricum mutants (after adaptation) is listed as “up to 2.0 % (v/v)”; in the experiment with C. tyrobutyricum mutants (without adaptation), “up to 1.5 % (v/v)”.
